Results taken from article PMC8329197, “Compounds targeting OSBPL7 increase ABCA1-dependent cholesterol efflux preserving kidney function in two models of kidney disease” (Nature Communications, 2021).
“And” between values parts separate entries of the source, which are not always exact repeats. Equal entries are not always repeated.

Key:
[1] = test system: Adriamycin (ADR)-induced nephropathy in Balb/c mice; experiment: ADR nephropathy: blood urea nitrogen (BUN) and serum creatinine; format: in vivo, mouse; conditions: 28 days treatment
Excerpt: Supplement 41467_2021_24890_MOESM5_ESM.xlsx, sheet "Supplementary Table 4" | column: ADR+ Cpd A; ADR+ Cpd G; ADR+ Cpd C

[2] = test system: human podocytes; experiment: apoAI-mediated cholesterol efflux in human podocytes; format: cell-based; conditions: for ApoA1-mediated cholesterol efflux (%) in podocytes: single experiments
Experimental: Cell lines were purchased from ATCC and subcultured for no more than passage 15, except for human podocytes, which were originally from Dr Jochen Reiser. Conditionally immortalized human podocytes were cultured under permissive conditions at 33 °C, in RPMI medium (Corning) containing 10% FBS (GIBCO), 1% penicillin/streptomycin, 0.01 mg/ml recombinant human insulin, 0.0055 mg/ml human transferrin (substantially iron-free), and 0.005 μg/ml sodium selenite (ITS, Corning). To induce differentiation, podocytes were cultured at 37 °C for 14 days in RPMI medium containing 10% FBS (GIBCO) and 1% penicillin/streptomycin. Differentiated podocytes were starved in RPMI-0.2% FBS for 18 h and then treated with 1 μM, 5 μM, and 10 μM of compounds freshly prepared in DMSO for 18 h at 37 °C as indicated.
Human podocytes differentiated for 13 days were labeled for 24 h at 37 °C in RPMI medium containing 2% FBS and [^3H]-cholesterol (1 μCi/ml, American Radiolabeled Chemicals). Cells were then washed 3 times with PBS and incubated with RPMI supplemented with 0.2% fat free-BSA (Sigma) with or without compounds for 18-h at 37 °C. The compounds were used at the following concentrations: Cpd C (1 μM), Cpd A (1 μM, 5 μM) and Cpd G (1 μM, 5 μM, 10 μM). Following the 18-h incubation, human apoAI (Calbiochem) was added to the media, (20 μg/mL final concentration) and the cells were incubated for another 18 h at 37 °C. Aliquots of medium collected before (T = 0 h) and after (T = 18 h) the addition of apoAI were centrifuged at 12,000 × g for 5 min and the radioactivity in the supernatant was counted by liquid scintillation. Cells were then washed with PBS, lysed 0.1% SDS, 0.1M NaOH and the radioactivity in the lysates was quantified by liquid scintillation. apoAI-mediated cholesterol efflux, expressed as %, was calculated as the amount of label released to the medium after adding apoAI (the difference in radioactivity in the medium before and after adding ApoA1) divided by the amount of total label in each well (radioactivity released to the media plus radioactivity in the lysed cells).

[3] = test system: Adriamycin (ADR)-induced nephropathy in Balb/c mice; experiment: Adriamycin-induced nephropathy, main study: albumin/creatinine ratio and body weight
[4] = test system: Adriamycin (ADR)-induced nephropathy in Balb/c mice; experiment: ADR nephropathy: serum cholesterol and triglycerides; format: in vivo, mouse
[5] = test system: human THP1 macrophages; experiment: apoAI-mediated (ABCA1) cholesterol efflux from cholesterol-loaded THP1 macrophages; format: cell-based; design: ABCA1 Efflux %: dose or concentration left out as unconfirmed
[6] = test system: Adriamycin (ADR)-induced nephropathy in Balb/c mice; experiment: Adriamycin-induced nephropathy, dose-finding pilot study: ACR and body weight time course; conditions: for ACR in pilot study: days 7-28; for Body Weight / ACR in spot urine: ADR, individual mice
[7] = ADR-injected mice, 28-day treatment, 25th quartile
[8] = ADR-injected mice, 28-day treatment, 75th quartile
[9] = ADR-injected mice, 28-day treatment, group maximum
[10] = ADR-injected mice, 28-day treatment, group median
[11] = ADR-injected mice, 28-day treatment, group minimum
[12] = ADR-injected mice, 28-day treatment, individual mouse values
[13] = 30 mg/Kg/day, 7 days after inj, 30 mg/kg/day
[14] = 30 mg/Kg/day, 14 days after inj, 30 mg/kg/day
[15] = 100 mg/Kg/day, 7 days after inj, 100 mg/kg/day
[16] = 100 mg/Kg/day, 14 days after inj, 100 mg/kg/day
[17] = 100 mg/Kg/day, 21 days after inj, 100 mg/kg/day
[18] = 100 mg/Kg/day, 28 days after inj, 100 mg/kg/day

O=C(N[C@@H]1CCCC[C@H]1O)c1ccc(OCC(F)(F)F)c(-c2ccc(Cl)c(Cl)c2)n1 [Cpd A]
BUN, QR(25) ([1]; 25th quartile): 16 mg/dL | sCre, QR(25) ([1]; 25th quartile): 0.11 mg/dL | BUN, QR(75) ([1]; 75th quartile): 17.75 mg/dL | sCre, QR(75) ([1]; 75th quartile): 0.135 mg/dL | BUN, Max ([1]; group maximum): 23 mg/dL | sCre, Max ([1]; group maximum): 0.17 mg/dL | BUN, Median ([1]; group median): 17 mg/dL | sCre, Median ([1]; group median): 0.115 mg/dL | BUN, Min ([1]; group minimum): 13 mg/dL | sCre, Min ([1]; group minimum): 0.08 mg/dL | Blood Urea nitrogen (BUN) ([1]; individual mouse values): 17 mg/dL and 23 mg/dL and 18 mg/dL and 19 mg/dL and 16 mg/dL and 15 mg/dL and 13 mg/dL | Serum Creatinine sCre ([1]; individual mouse values): 0.12 mg/dL and 0.08 mg/dL and 0.17 mg/dL and 0.1 mg/dL and 0.15 mg/dL and 0.11 mg/dL and 0.14 mg/dL | ApoA1-mediated cholesterol efflux (%) in podocytes ([2]; 1 uM): 4.2% and 0.9% and 3.2% and 3.5% and 3.7% | ApoA1-mediated cholesterol efflux (%) in podocytes ([2]; 5 uM): 3.3% and 4.4% and 1.5% and 3.7% and 2.4% and 6.4% and 7.6% and 3.5% | Increase in apoAI-mediated cholesterol efflux vs. untreated cells ([2]; Cpd G 10 µM, Cpd A 5 µM, Cpd C 1 µM): ~2 fold | Effect on weight loss ([3]; 28 days after ADR): substantially reduced weight loss | ACR, median ([3]; 28 days after ADR, Cpd A 30, Cpd G 100, Cpd C 10 mg/Kg, group median): 2.3 mg albumin/mg creatinine and 2.363 mg albumin/mg creatinine | Weight (d28) ([3]; animal weight when therapy finished, single animals): 19 and 21 and 18 and 15 and 20 | Weight Change (as % of weight at day 0), Median ([3]; day 28 after ADR, Cpd A 30, Cpd G 100, Cpd C 10 mg/Kg): 0% | Weight Change (as % of weight at day 0) ([3]; day 28 after ADR, Cpd A 30, Cpd G 100, Cpd C 10 mg/Kg, single animals): 0% and -5.3% and -4.5% and -6.3% and -25% and 5.6% | ACR values (mg Albumin / mg Creatinine) ([3]; spot urine 28 days after ADR, oral daily Cpd A 30, Cpd G 100, Cpd C 10 mg/Kg, single animals): 0.242 mg Albumin / mg Creatinine and 6.27 mg Albumin / mg Creatinine and 20.39 mg Albumin / mg Creatinine and 14.37 mg Albumin / mg Creatinine and 0.707 mg Albumin / mg Creatinine and 11.834 mg Albumin / mg Creatinine and 0.631 mg Albumin / mg Creatinine and 2.363 mg Albumin / mg Creatinine and 0.33 mg Albumin / mg Creatinine and 3.08 mg Albumin / mg Creatinine and 0.093 mg Albumin / mg Creatinine | Times lower ACR ([3]; vs ADR+V, 28 days, Cpd A 30, Cpd G 100 mg/kg/day): 8 times | SERUM CHOLESTEROL ([4]; ADR model, individual animals): 96 and 91 and 87 and 95 and 159 and 122 and 71 and 90 and 81 and 77 | SERUM TRIGLYCERIDES ([4]; ADR model, individual animals): 108 and 116 and 127 and 60 and 44 and 80 and 53 and 54 | Serum cholesterol, QR(25) [4, 7]: 87 mg/dL | Serum triglycerides, QR(25) [4, 7]: 55.5 mg/dL | Serum cholesterol, QR(75) [4, 8]: 96 mg/dL | Serum triglycerides, QR(75) [4, 8]: 116 mg/dL | Serum cholesterol, Max [4, 9]: 159 mg/dL | Serum triglycerides, Max [4, 9]: 127 mg/dL | Serum cholesterol, Median [4, 10]: 91 mg/dL | Serum triglycerides, median [4, 10]: 94 mg/dL | Serum cholesterol, Min [4, 11]: 71 mg/dL | Serum triglycerides, Min [4, 11]: 44 mg/dL | SERUM CHOLESTEROL [4, 12]: 91 mg/dL and 87 mg/dL and 95 mg/dL and 159 mg/dL and 122 mg/dL and 71 mg/dL and 90 mg/dL and 77 mg/dL and 96 mg/dL | SERUM TRIGLYCERIDES [4, 12]: 44 mg/dL and 80 mg/dL and 53 mg/dL and 54 mg/dL and 108 mg/dL and 116 mg/dL and 127 mg/dL and 60 mg/dL | Animals with sporadically high cholesterol levels (>122 mg/dL) ([4]; plasma, 28 days of treatment, ADR-challenged): 10% | Cholesterol (mg/dL), Median(IQR) ([4]; serum, after ADR challenge): 91(80-159) mg/dL | Cholesterol (mg/dL), Range ([4]; serum, after ADR challenge): 71 to 159 mg/dL | Cholesterol, % of the group> 112 mg/dL ([4]; serum, after ADR challenge): 10% | Triglycerides (mg/dL), Median(IQR) ([4]; serum, after ADR challenge): 94(54-116) mg/dL | Triglycerides (mg/dL), Range ([4]; serum, after ADR challenge): 44 to 127 mg/dL | ABCA1 percentage of induction, average ([5]; average of 3): 91% | ABCA1 Efflux % ([5]; average(SEM)): 91(4.9) % | ABCA1 percentage of induction ([5]; single experiments (3 per compound)): 81% and 94% and 97% | ACR in pilot study ([6]; 30 mg/kg/day oral): significantly improved | ACR in pilot study ([6]; 100 mg/kg/day oral): significantly improved | Body Weight ([6]; 30 mg/Kg/day, 0 days after inj, 30 mg/kg/day): 19 grams (3×) and 18 grams and 20 grams | ACR in spot urine [6, 13]: 0.046 mg Albumin/ mg Creatinine in urine and 0.018 mg Albumin/ mg Creatinine in urine and 0.038 mg Albumin/ mg Creatinine in urine and 0.025 mg Albumin/ mg Creatinine in urine and 0.07 mg Albumin/ mg Creatinine in urine | Body Weight [6, 13]: 18 grams and 17 grams (3×) and 19 grams | ACR in spot urine [6, 14]: 18.583 mg Albumin/ mg Creatinine in urine and 0.363 mg Albumin/ mg Creatinine in urine and 64.328 mg Albumin/ mg Creatinine in urine and 0.368 mg Albumin/ mg Creatinine in urine and 1.926 mg Albumin/ mg Creatinine in urine | Body Weight [6, 14]: 18 grams (3×) and 17 grams (2×) | Body Weight ([6]; 30 mg/Kg/day, 21 days after inj): 18 grams | ACR in spot urine ([6]; 30 mg/Kg/day, 21 days after inj, 30 mg/kg/day): 1.551 mg Albumin/ mg Creatinine in urine and 71.309 mg Albumin/ mg Creatinine in urine and 0.609 mg Albumin/ mg Creatinine in urine and 0.814 mg Albumin/ mg Creatinine in urine | Body Weight ([6]; 30 mg/Kg/day, 28 days after inj): 19 grams | ACR in spot urine ([6]; 30 mg/Kg/day, 28 days after inj, 30 mg/kg/day): 2.363 mg Albumin/ mg Creatinine in urine and 0.33 mg Albumin/ mg Creatinine in urine and 3.08 mg Albumin/ mg Creatinine in urine and 0.093 mg Albumin/ mg Creatinine in urine and 0.242 mg Albumin/ mg Creatinine in urine | Body Weight ([6]; 100 mg/Kg/day, 0 days after inj, 100 mg/kg/day): 20 grams (2×) and 18 grams and 19 grams (2×) | ACR in spot urine [6, 15]: 0.022 mg Albumin/ mg Creatinine in urine and 0.015 mg Albumin/ mg Creatinine in urine and 0.072 mg Albumin/ mg Creatinine in urine and 0.065 mg Albumin/ mg Creatinine in urine | Body Weight [6, 15]: 18 grams and 17 grams (4×) | ACR in spot urine [6, 16]: 5.851 mg Albumin/ mg Creatinine in urine and 174.428 mg Albumin/ mg Creatinine in urine and 9.218 mg Albumin/ mg Creatinine in urine and 96.72 mg Albumin/ mg Creatinine in urine | Body Weight [6, 16]: 17 grams (3×) and 18 grams and 19 grams | ACR in spot urine [6, 17]: 3.536 mg Albumin/ mg Creatinine in urine and 136.245 mg Albumin/ mg Creatinine in urine and 73.737 mg Albumin/ mg Creatinine in urine and 208.282 mg Albumin/ mg Creatinine in urine | Body Weight [6, 17]: 15 grams and 18 grams (3×) | ACR in spot urine [6, 18]: 0.638 mg Albumin/ mg Creatinine in urine and 26.929 mg Albumin/ mg Creatinine in urine and 1.99 mg Albumin/ mg Creatinine in urine and 18.858 mg Albumin/ mg Creatinine in urine | Body Weight [6, 18]: 15 grams and 19 grams and 18 grams and 14 grams
